From patent US6656690B2, “Mass spectrometric methods for biomolecular screening” (priority 1998, dated 2003)
“Also recorded” adds a separate entry of the source.

Legend:
16S A site 27mer RNA = test: ESI-FTICR mass spectrometric (MASS) binding assay, 16S A-site 27-mer RNA model; set-up: species or system prokaryotic; conditions: for complexes observed with 16S (in words): aminoglycosides 500 nM each, mixture with untagged 16S and tagged 18S
Method: (§1) The ESI-FTICR mass spectrum depicted in FIG. 26 was acquired from a […] mixture of untagged 16S and tagged 18S in the presence of an equimolar mixture of five aminoglycosides. It is to be understood that other biomolecules may be used in place of the aminoglycosides. The aminoglycosides have been selected from two classes of 2-deoxystreptamines: 4,5-disubstituted (paromomycin, and lividomycin), and 4,6-disubstituted (tobramycin, sisomicin, and bekanamycin), present at 500 nM each. Complexes corresponding to 1:1 binding of individual aminoglycosides were observed between 16S and all members of the aminoglycoside mixture, with the apparent affinities estimated from the abundances of the respective complexes differing substantially. Signal intensities from the complexes with paromomycin (m/z 1925.572) and lividomycin (m/z 1954.790) are consistent with MS-measured dissociation constants of 110 nM and 28 nM, respectively. The intensities of 16S complexes with tobramycin (m/z 1895.960), bekanamycin (m/z 1899.171), and sisomicin (m/z 1891.972) were reduced, consistent with solution dissociation constants of […]. Wang, et al., Biochemistry, 1997, 36, 768-779. […] The spectrum is calibrated using multiple isotope peaks of the (M-5H^+)^5− and (M-4H^+)^4− charge states of the free RNA as internal mass standards which brackets the m/z range in which complexes are observed. The average mass measurement error obtained for the complexes in FIG. 26 is 2.1 ppm when m/z differences are measured between the most abundant (4 ^13C) isotope peak of 16S and each complex. This post calibration scheme is easily automated which enables rapid, high precision mass measurements of affinity selected ligands against multiple targets in a high throughput mode.
A preferred first step of MASS screening involves mixing the RNA target (or targets) with a combinatorial library of ligands designed to bind to a specific site on the target molecule(s). Specific noncovalent complexes formed in solution between the target(s) and any library members are transferred into the gas phase and ionized by ESI. As described herein, from the measured mass difference between the complex and the free target, the identity of the binding ligand can be determined. The dissociation constant of the complex can be determined in two ways: if a ligand with a known binding affinity for the target is available, a relative Kd can be measured by using the known ligand as an internal control and measuring the abundance of the unknown complex to the abundance of the control, alternatively, if no internal control is available, Kd's can be determined by making a series of measurements at different ligand concentrations and deriving a Kd value from the “titration” curve.
Electrospray ionization Fourier transform ion cyclotron resonance mass spectrometry was performed on a solution containing […] 16S RNA (the 27-mer construct shown in FIG. 24) and 500 nM paromomycin is depicted in FIG. 13. A 1:1 complex was observed between the paromomycin and the RNA consistent with specific aminoglycoside binding at the A-site. The insets show the measured and calculated isotope envelopes of the (M-5H+)5− species of the free RNA and the RNA-paromomycin complex. High precision mass measurements were acquired using isotope peaks of the (M-5H+)^5− and (M-4H^+)^4− charge states of the free RNA as internal mass standards and measuring the m/z difference between the free and bound RNA.
ESI-MS measurements of a solution containing a fixed concentration of RNA at different concentrations of ligand were obtained. By measuring the ratio of bound:unbound RNA at varying ligand concentrations, the Kd was determined by 1/slope of the “titration curve”. The MS derived value of 110 nM is in good agreement with previously reported literature value of 200 nM. […]

18S A site model = test: ESI-FTICR mass spectrometric (MASS) binding assay, mass-tagged 18S A-site 27-mer RNA model; set-up: species or system eukaryotic; conditions: aminoglycosides 500 nM each, mixture with untagged 16S and tagged 18S
Method: as §1, with “The” for “The spectrum is calibrated using multiple isotope peaks of the (M-5H^+)^5− and (M-4H^+)^4− charge states of the free RNA as internal mass standards which brackets the m/z range in which complexes are observed. The”, “This post calibration scheme is easily automated which enables rapid, high precision mass measurements of affinity selected ligands against multiple targets in a high throughput mode.” left out

SMILES	complexes observed with 16S (in words) (16S A site 27mer RNA)	complexes observed with 16S (in words) (16S A site 27mer RNA; listed as bekamycin)	Kd (16S A site 27mer RNA; ESI-FTICR MS, 16S A site 27mer, read-out: MS-measured dissociation constant (KD))	enhancement of binding affinity for 16S relative to paromomycin (16S A site 27mer RNA; lividomycin vs paromomycin)	complexes observed with 18S (in words) (18S A site model)	complexes observed with 16S (in words) (16S A site 27mer RNA; listed as sisomycin)
NC[C@H]1O[C@H](O[C@H]2[C@H](O)[C@@H](O[C@H]3O[C@H](CO)[C@@H](O)[C@H](N)[C@H]3O)[C@H](N)C[C@@H]2N)[C@H](N)[C@@H](O)[C@@H]1O [bekanamycin]	reduced	Weaker complexes				
NC[C@H]1O[C@H](O[C@H]2[C@H](O)[C@@H](O[C@H]3O[C@H](CO)[C@@H](O)[C@H](N)[C@H]3O)[C@H](N)C[C@@H]2N)[C@H](N)C[C@@H]1O [tobramycin]	reduced; also recorded: Weaker complexes					
NC[C@@H]1O[C@H](O[C@H]2[C@@H](O)[C@H](O[C@@H]3[C@@H](O)[C@H](N)C[C@H](N)[C@H]3O[C@H]3O[C@H](CO)[C@@H](O)C[C@H]3N)O[C@@H]2CO)[C@H](N)[C@@H](O)[C@@H]1O[C@H]1O[C@H](CO)[C@@H](O)[C@H](O)[C@@H]1O [lividomycin]	High affinity complexes		28 nM	~4 fold	complete absence of complexes	
CN[C@@H]1[C@@H](O)[C@@H](O[C@@H]2[C@@H](O)[C@H](O[C@H]3OC(CN)=CC[C@H]3N)[C@@H](N)C[C@H]2N)OC[C@]1(C)O [sisomicin]	reduced					Weaker complexes
